Experiments:
pea mutant rms1 = experiment: Inhibition of branching in the pea, application directly on the axillary bud; type: in vivo, Pisum sativum L.; details: for bud growth inhibition (length of bud/branch at node 3, 8 days after treatment at node 3): Experiment 3, FIG. 5
Description: Generally, in the pea, the first two scales are considered to be the first two nodes, the cotyledonary node being node 0.
The rms1 mutant is an “SMS” signal biosynthesis mutant, repressing branching of the plant.
Tests for activity on the inhibition of branching were carried out in the following way.
The strigolactone-deficient rms1 (ccd8) pea mutants described in Beveridge et al., 1997, were used for the test (M3T884 line derived from the Térèse variety).
The activity of the compounds (IIa), (II′d) and (II′e) in accordance with the invention and of the comparative compound GR24 was evaluated at respective doses of 10 nM, 100 nM and 1 μM, by treatment at node 3. […]
24 plants were sown per treatment. 8 days after sowing, the treatment was carried out on the axillary bud at node 3, by application of 10 μl of each solution to be tested, directly on the bud, by means of a micropipette. The lateral outgrowths at nodes 1 and 2 were removed in order to encourage the growth of the axillary buds at the higher nodes. […]
The activity of the compounds (IIa), (IIb), (IIc), (II′d), (II′e) and (II′f) in accordance with the invention was evaluated at respective doses of 100 nM and 1 μM, by treatment at node 3.
For this, solutions containing each compound to be tested, in 1% acetone, 4% propylene glycol 1450 and 50% ethanol, were used.
The activity of the compounds (IIa), (IIIa), (IIIb) and (IIIc) in accordance with the invention, and also of GR24 as comparative compound, was evaluated at respective doses of 100 nM and 1 μM, by treatment at node 3, according to the protocol described above with reference to experiment 2.
A sample consisting only of the solvent, and without active compound, was also tested as negative control, termed “CTL 0”.
In this experiment, the activity of the compound (IIIa) in accordance with the invention, and also of GR24 as comparative compound, was evaluated at respective doses of 1 nM, 10 nM, 100 nM and 1 μM, by treatment at node 3, according to the protocol described above with reference to experiment 2, for doses of 10 nM, 100 nM and 1 μM of compounds.
A sample consisting only of the solvent, and without active compound (“CTL 0”) was also tested as a negative control. A nontreated (“NT”) control was also carried out.
(§1) A dose-response test for evaluating the activity of the compounds by deposition at node 3 was carried out according to the protocol described above with reference to experiment 2, for the compound in accordance with the invention (IIa) and for the comparative compounds GR24, Comp. 3 and Comp. 4. Concentrations of 10 nM, 100 nM and 1 μM were tested.
A sample consisting only of the solvent, and without active compound (“CTL 0”), was also tested as a negative control. A nontreated (“NT”) control was also carried out.
as §1, with “Comp. 5” for “Comp. 3”, “Comp. 6.” for “Comp. 4.”, “10 nM and” for “10 nM,”, “nM” for “nM and 1 μM”, “tested. […]” for “tested.”
The sprouting of the axillary buds at node 4 was measured 8 days after the treatment by means of a digital sliding caliper.
The activity of the compound (IIIa) in accordance with the invention on bud growth at node 3 was evaluated at a dose of 1000 nM by treatment at node 3. The GR24 compound was tested at the same concentration as comparative compound. […]

pea rms1 mutants = experiment: Hydroponic culture test in pea; type: in vivo, Pisum sativum L.; details: 8 days
Description: For this example, ramosus (rms1) hyperbranched pea (Pisum sativum L.) mutants were used.
More particularly, rms1 (rms1-10) hyperbranched mutant plants were used. The nutritive solution (100%) was prepared by adding the following macronutrients to 1000 l of water: HNO3 (0.28 l), (NH4)2HPO4 (120 g), Ca(NO3)2 (40 g), Mg(NO3)2 (140 g), KNO3 (550 g), (NH4)2MoO4 (0.05 g), H3BO3 (15 g), MnSO4.H2O (2 g), ZnSO4.7H2O (1 g), CuSO4.5H2O (0.25 g), Sequestrene® (10 g) (Fe-EDTA solution). The pea seeds were germinated in moist sand for 6 days, then placed in holes of a lid (35 holes/lid, 20 mm in diameter) of an opaque PVC pot containing the hydroponic culture solution (47 l, pH 5.8).
In a first experiment, acetone or the compound to be tested (dissolved in acetone) was added to the hydroponic culture solution so as to obtain a final concentration of 0 or 1 μM of compound to be tested and 0.01% of acetone.
The hydroponic culture solution was continually aerated by means of an aquarium pump and replaced each week. 8 days after the start of the treatment, the lengths of bud/branch (nodes 1 to 6) were measured with an electronic sliding caliper.
This experiment was carried out for the compounds according to the invention (IIa) and (IIIb), and also the GR24 compound as comparative compound. A negative control (<<CTL 0>>), corresponding to a treatment with the solvent alone, was also carried out.
The results (mean data on 20 plants), in terms of, on the one hand, length of the branches at nodes 3 to 5 and, on the other hand, plant height, are shown respectively in FIGS. 11 and 12.
The same experiment was carried out for the compound in accordance with the invention (II″g) and the comparative compound GR24. Dimethyl sulfoxide (DMSO) or the compound to be tested, dissolved in DMSO, was added to the hydroponic culture solution so as to obtain a final concentration of 0 or 3 μM of compound to be tested and 0.01% of DMSO.
The results (mean data on 10 to 12 plants), in terms, on the one hand, of length of the branches at nodes 3 to 4 and, on the other hand, of plant height, are shown respectively in FIGS. 13 and 14.

MRC5 cells = experiment: In vitro cytotoxicity study on MRC5 cells (MTS); type: cell-based, human; details: Homo sapiens, MRC5, 72 hours, ± standard error, read-out: Percentage inhibition of MRC5 cell growth; for inhibition at 100 µM: 10^−4M; for inhibition at 10 µM: 10^−5M
Description: The cytotoxicity of the compound (IIa) according to the invention, and that of GR24 and of GR5 as comparative compounds, was evaluated in vitro, at concentrations of 10^−4 M and 10^−5 M, on MRC5 cells, in DMSO, in the following way.
MRC5 cells (human lung (fibroblasts) were cultured in Dulbecco's modified Eagle medium (DMEM) supplemented with: 25 mM of glucose, 10% (v/v) of fetal calf serum, 100 IU of penicillin, 100 μg/ml of streptomycin and 1.5 μg/ml of fungizone, and kept under 5% of CO2 at 37° C.
96-well plates were seeded with 2100 MRC5 cells per well in 200 μl of medium. After 24 hours, each of the compounds dissolved in DMSO was added for 72 hours, at a final concentration of 10^−4 M or 10^−5 M in a fixed volume of DMSO. The controls received an equal volume of DMSO.
The viable cell number was measured at 490 nm with the MTS reagent (Promega), and, for each compound, the concentration causing 50% inhibition of cell growth, IC50, was calculated.

Phelipanche ramosa pv C = experiment: Germinative activity on parasitic plants; type: in vivo; details: counted after 4 days
Description: (§2) In this example, the germinative activity of the compounds in accordance with the invention (IIa) and (IIIb) and of the comparative compound GR24 was evaluated on the parasitic plants: Orobanche cumana, Orobanche minor, Striga hermonthica, Phelipanche ramosa (pv T and pv C).
(§3) The test protocol used was the following.
(§4) Two populations of Phelipanche ramosa were used in this study, pathovar (pv) C and T, described in the publication by Benharrat et al. (2005). Seeds of Phelipanche ramosa pathovar C were collected at Saint Martin de Fraigneau, France, on broomrapes parasitizing winter oilseed rape (Brassica napus L.) in 2005 and seeds of Phelipanche ramosa pathovar T were collected in Sarthe, France, on broomrapes developing on hemp (Cannabis sativa L.) in 2007.
(§5) The seeds are stored dry in the dark at 25° C.
(§6) The compounds to be studied were resuspended in acetone at 10 mmol·l^−1, then diluted with water to 1 mmol·l^−1 (water/acetone; v/v; 99/1). Dilutions of 1×10^−3 mol·l^−1 to 1×10^−15 mol·l^−1 were then prepared in a water/acetone mixture (v/v; 99/1). Seeds of parasitic plants were surface-sterilized according to the protocol described in the publication by Vieira Dos Santos et al. (2003), then resuspended in sterile water (10 g·l^−1) and distributed on a 96-well plate (in a proportion of 50 μl, i.e. approximately 100 seeds per well). After preconditioning (7 days, 21° C., in the dark, plate hermetically sealed, except for the seeds of S. hermonthica, which were preconditioned at 30° C.), the compounds to be studied were added and the volumes adjusted to 100 μl with water (water/acetone; v/v; 999/1).
(§7) In a plate, a range of concentrations from 10^−13 mol·l^−1 to 10^−6 mol·l^−1 was applied for GR24 and (IIa) and from 10^−12 to 10^−5 mol·l^−1 for (IIIb). Controls were carried out with a water/acetone mixture (v/v; 999/1) and without seeds. The plates were incubated so as to allow germination (21° C., in the dark or 30° C. for Striga hermonthica.). After 4 days, the seeds which had germinated were counted under a stereomicroscope (SZX10, Olympus). The seeds were considered to have germinated when the radicle was sticking out of the seed tegument. Each germination test was repeated at least 3 times. For each compound tested, dose-response curves (g=f(c), where g is the germination percentage and c the concentration (mol·l^−1)), and the EC50 (median effective concentration) were modeled on the basis of a 4-parameter logistic curve calculated with SigmaPlot® 10.0.
(§8) The percentages of maximum germination induced by the compounds tested for each parasitic plant were determined.

Phelipanche ramosa pv T = experiment: Germinative activity on parasitic plants; type: in vivo; details: counted after 4 days
Description: as §2, §3, §4, §5, §6, §7, §8

Striga hermonthica = experiment: Germinative activity on parasitic plants; type: in vivo; details: counted after 4 days, 30° C.
Description: as §2, §3
Seeds of Striga hermonthica (Del.) Benth were collected at Gadarif, Eastern Sudan, in 1999.
as §5, §6
as §7, with “The seeds were considered to have germinated when the radicle was sticking out of the seed tegument. Each germination test was repeated at least 3 times.” left out
as §8

Orobanche cumana = experiment: Germinative activity on parasitic plants; type: in vivo; details: counted after 4 days
Description: as §2, §3
(§9) Seeds of Orobanche cumana Wallr. were collected from broomrapes parasitizing sunflower (Helianthus annuus L.), at Longeville-sur-mer, France, in 2009; seeds of clover broomrape (Orobanche minor Sm.) from a parasite of red clover (Trifolium pratense L.) were obtained from Professor K. Yoneyama (Utsunomiya University, Japan).
as §5, §6, §7, §8

Orobanche minor = experiment: Germinative activity on parasitic plants; type: in vivo; details: counted after 4 days
Description: as §2, §3, §9, §5, §6, §7, §8

[1] = Experiment 2, FIG. 4, 100 nM and 1 μM
[2] = Experiment 1, FIG. 3, concentration of 1 μM

Structure (SMILES): CC1=C(C)C(Sc2ccc(Br)cc2)OC1=O (stereo not shown)
- inhibitory activity on bud growth (length of bud/branch at node 3, 8 days after treatment at node 3) (pea mutant rms1; [1]): most active

Structure (SMILES): CC(C=O)=COC1OC(=O)C(C)=C1C (stereo not shown) [Compound (IIIa), 3-((3,4-dimethyl-5-oxo-2,5-dihydrofuran-2-yl)oxy)-2-methylacrylaldehyde]
- bud growth inhibition (length of bud/branch at node 3, 8 days after treatment at node 3) (pea mutant rms1; 100 nM and 1 μM): slightly less active, exhibit, however, a high activity in terms of bud growth inhibition
- inhibitory activity on bud growth at node 3 (length of bud/branch 8 days after treatment at node 3) (pea mutant rms1; Experiment 8, FIG. 10, 1000 nM): although less than that of GR24, is highly significant

Structure (SMILES): C=C/C(C)=C/OC1OC(=O)C(C)=C1C (stereo not shown) [Compound (IIIc), (E)-3,4-dimethyl-5-((2-methylbuta-1,3-dien-1-yl)oxy)furan-2(5H)-one]
- bud growth inhibition (length of bud/branch at node 3, 8 days after treatment at node 3) (pea mutant rms1; 100 nM and 1 μM): slightly less active, exhibit, however, a high activity in terms of bud growth inhibition

Structure (SMILES): CC1=C(C)C(Sc2ccc(C(F)(F)F)cc2)OC1=O (stereo not shown) [Compound (IIc), 3,4-dimethyl-5-((4-(trifluoromethyl)phenyl)thio)furan-2(5H)-one]
- inhibitory activity on bud growth (length of bud/branch at node 3, 8 days after treatment at node 3) (pea mutant rms1; [1]): most active

Structure (SMILES): CC1=C(C)C(Oc2ccc(Cl)cc2)OC1=O (stereo not shown) [Compound (II′d), 5-(4-chlorophenoxy)-3,4-dimethylfuran-2(5H)-one]
- inhibitory activity on bud growth (length of bud/branch at node 3, 8 days after treatment at node 3) (pea mutant rms1; [2]): exhibit an inhibitory activity on bud growth at node 3

Structure (SMILES): CC1=C(C)C(Oc2ccc(Br)cc2)OC1=O (stereo not shown) [Compound (II′e), 5-(4-bromophenoxy)-3,4-dimethylfuran-2(5H)-one]
- inhibitory activity on bud growth (length of bud/branch at node 3, 8 days after treatment at node 3) (pea mutant rms1; [2]): exhibit an inhibitory activity on bud growth at node 3

Structure (SMILES): CC1=C(C)C(Oc2ccc3ccc(=O)oc3c2)OC1=O (stereo not shown) [Compound (II″g), 7-[3,4-dimethylfuran-2(5H)-one]oxycoumarin]
- length of the branches at nodes 3 to 4 (pea rms1 mutants; 3 μM in hydroponic culture solution, FIG. 13): an activity on all the branches of nodes 3 to 4, and also an effect on plant height, which are both greater than those of the comparative compound GR24
- plant height (pea rms1 mutants; 3 μM in hydroponic culture solution, FIG. 14): an effect on plant height, which are both greater than those of the comparative compound GR24

Structure (SMILES): CC1=CC(O/C=C2\CCOC2=O)OC1=O (stereo not shown) [GR5]
- inhibition at 100 µM (MRC5 cells): 66 ± 1%
- inhibition at 10 µM (MRC5 cells): 0%

Structure (SMILES): CC1=CC(O/C=C2/C(=O)OC3c4ccccc4C[C@H]23)OC1=O (stereo partly shown) [GR24, reference compound]
- inhibition at 100 µM (MRC5 cells): 97 ± 1%
- inhibition at 10 µM (MRC5 cells): 0%
- plant height (pea rms1 mutants; 1 μM in hydroponic culture solution, FIG. 12): significant effect on plant height is also demonstrated, comparable between the comparative compound GR24 and the compound in accordance with the invention (IIa)
- Percentage of maximum germination induced (Phelipanche ramosa pv C): 89 ± 6%
- Percentage of maximum germination induced (Phelipanche ramosa pv T): 87 ± 7%
- Percentage of maximum germination induced (Striga hermonthica): 57 ± 5%
- Percentage of maximum germination induced (Orobanche cumana): 78 ± 5%
- Percentage of maximum germination induced (Orobanche minor): 81 ± 5%
